“Also recorded” adds a separate entry of the source. Square brackets hold non-standard residues; d marks the D form. Peptide text beside a SMILES is read from it. pS = N[C@@H](COP(=O)(O)O)C(=O)O
Tested on: human corneal epithelial (HCE) cells
Test: Boyden chamber cell migration assay
Type: cell-based
Description: Transfection/Knock-Down of TMEM97. Sub-confluent monolayers of HCE cells in grown in 35-mm six-well plates were transfected with reaction mixtures composed of 100 pmol of small interfering RNA (siRNA) to TMEM97 (Santa Cruz Biotechnology; Dallas, Tex.) for 48 hours and 5 μL of transfection reagent sold under the tradename LIPOFECTAMINE® 2000 (Invitrogen; Carlsbad, Calif.) in culture medium sold under the tradename OPTI-MEMO media (Gibco Life Technologies; Grand Island, N.Y.). Complexes were incubated for 20 minutes at 24° C. and then added to cells at 37° C. Incubation was continued for 24 to 48 hours at 37° C. in 5% CO2. Knock-down (KD) of TMEM97 was confirmed by western blot analysis using a rabbit anti-TMEM97 antibody (Novus Bio.; Littleton, Colo.).
Cell Migration Assay. HCE migration assays were performed in a 48-well micro-chemotaxis chamber (Neuro Probe, Inc.; Cabin John, Md.), following the manufacturer's instructions and following a modification of prior reports. Polyester membranes (Neuro Probe, Inc.; Gaithersburg, Md.) with 12 μm pores were used. Cells were incubated with Hst1 for 6 hours, harvested using Versene (Life Technologies, Corp.; Grand Island, N.Y.), resuspended in RPMI-1640 medium (Life Technologies, Corp.; Grand Island, N.Y.) containing 0.5% FBS. The bottom chamber was loaded with RPMI-1640 media containing 2% FBS, and the filter was laid over the media. […]

CC(C)C[C@H](NC(=O)[C@H](Cc1ccc(O)cc1)NC(=O)[C@H](CC(N)=O)NC(=O)[C@H](CO)NC(=O)CNC(=O)[C@H](Cc1ccc(O)cc1)NC(=O)[C@H](CC(=O)O)NC(=O)CNC(=O)[C@H](Cc1ccc(O)cc1)NC(=O)[C@H](Cc1ccccc1)NC(=O)[C@@H]1CCCN1C(=O)[C@H](Cc1ccccc1)NC(=O)[C@H](CCC(=O)O)NC(=O)[C@H](CCCNC(=N)N)NC(=O)[C@H](Cc1c[nH]cn1)NC(=O)[C@H](CO)NC(=O)[C@H](Cc1c[nH]cn1)NC(=O)[C@H](Cc1c[nH]cn1)NC(=O)[C@H](CCCCN)NC(=O)[C@H](CCC(=O)O)NC(=O)[C@H](Cc1c[nH]cn1)NC(=O)[C@H](Cc1ccccc1)NC(=O)[C@H](CCCCN)NC(=O)[C@H](CCCNC(=N)N)NC(=O)[C@H](CCCNC(=N)N)NC(=O)[C@H](Cc1ccc(O)cc1)NC(=O)CNC(=O)[C@H](Cc1c[nH]cn1)NC(=O)[C@H](Cc1c[nH]cn1)NC(=O)[C@H](CCCNC(=N)N)NC(=O)[C@H](CCCCN)NC(=O)[C@H](CCC(=O)O)NC(=O)[C@H](Cc1c[nH]cn1)NC(=O)[C@H](COP(=O)(O)O)NC(=O)[C@@H](N)CC(=O)O)C(=O)N[C@@H](Cc1ccc(O)cc1)C(=O)N[C@@H](CC(=O)O)C(=O)N[C@@H](CC(N)=O)C(=O)O [Hst1] (H-D[pS]HEKRHHGYRRKFHEKHHSHREFPFYGDYGSNYLYDN-OH; N-terminus and C-terminus assumed) was tested, and the “transmigration response in TMEM97 KD cells” value (siRNA knock-down of TMEM97) was “inhibits; also recorded: abolished this response” and the cellular transmigration (toward 2% FBS stimulus) was “dose-dependent increase in cellular transmigration”.
